The source made the active and inactive calls. The rule behind the calls is not given here.
Tests used:
A549 [1] = assay: Antiproliferative activity against human A549 cells assessed as inhibition of cell growth; format: functional, cell-based
[2] = Antiproliferative activity against human A549R cells assessed as inhibition of cell growth; format: functional, cell-based
NB-4 = assay: Antiproliferative activity against human NB4 cells assessed as inhibition of cell growth; format: functional, cell-based
[3] = Antiproliferative activity against mouse A261 cells assessed as inhibition of cell growth; format: functional, cell-based
[4] = Cytotoxicity against HLF cells assessed as inhibition of cell growth; format: toxicity, cell-based; conditions: human
A549 [5] = assay: Induction of autophagy in human A549 cells assessed as downregulation of p62 protein expression at 3 to 9 uM incubated for 24 hrs by Western blot analysis; format: functional, cell-based; conditions: dose 3-9 µM
A549 [6] = assay: Antiproliferative activity against human A549 cells cultured as 3D spheroids assessed as decrease in multicellular tumor spheroid size at 20 uM treated for 5 days by live-cell phase-contrast microscopy; format: functional, cell-based; conditions: time 5.0 day
[7] = molecular target: T1, Alpha-ketoglutarate-dependent dioxygenase FTO (Homo sapiens, UniProt Q9C0B1); assay: Inhibition of human FTO assessed as reduction in enzyme-mediated demethylation of m6A-ssDNA incubated for 2 hrs by PAGE analysis
Target sequence in this assay (Q9C0B1 whole entry): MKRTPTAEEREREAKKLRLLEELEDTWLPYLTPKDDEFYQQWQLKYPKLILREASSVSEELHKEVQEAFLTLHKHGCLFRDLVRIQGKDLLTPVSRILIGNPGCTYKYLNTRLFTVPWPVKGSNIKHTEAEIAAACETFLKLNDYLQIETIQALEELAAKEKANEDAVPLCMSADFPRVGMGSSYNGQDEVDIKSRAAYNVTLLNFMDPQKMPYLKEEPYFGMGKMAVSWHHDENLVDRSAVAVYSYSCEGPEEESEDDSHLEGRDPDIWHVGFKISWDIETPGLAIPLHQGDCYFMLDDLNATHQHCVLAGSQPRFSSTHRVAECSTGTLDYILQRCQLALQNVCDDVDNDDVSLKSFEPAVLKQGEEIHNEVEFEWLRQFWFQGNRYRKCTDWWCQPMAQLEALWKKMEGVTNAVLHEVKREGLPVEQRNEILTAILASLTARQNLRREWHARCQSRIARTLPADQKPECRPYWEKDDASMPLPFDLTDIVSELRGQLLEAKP

A549 [8] = assay: Induction of autophagy in human A549 cells assessed as upregulation of LC3-II protein expression at 3 to 9 uM incubated for 24 hrs by Western blot analysis; format: functional, cell-based; conditions: dose 3-9 µM
[9] = molecular target: T1, Alpha-ketoglutarate-dependent dioxygenase FTO; assay: Inhibition of FTO in human A549 cells assessed as upregulation of gammaH2AX protein expression at 3 to 9 uM incubated for 24 hrs by Western blot analysis; format: cell-based; conditions: dose 3-9 µM
Target sequence in this assay (Q9C0B1 whole entry, looked up): as the sequence (Q9C0B1 whole entry) above

[10] = molecular target: T1, Alpha-ketoglutarate-dependent dioxygenase FTO; assay: Inhibition of human FTO assessed as reduction in enzyme-mediated demethylation of m6A-ssDNA at 12.5 uM incubated for 2 hrs by PAGE analysis
Target sequence in this assay (Q9C0B1 whole entry, looked up): as the sequence (Q9C0B1 whole entry) above

A549 [11] = assay: Effect on FTO expression in human A549 cells at 3 to 9 uM incubated for 24 hrs by Western blot analysis; format: functional, cell-based; conditions: dose 3-9 µM
[12] = molecular target: T1, Alpha-ketoglutarate-dependent dioxygenase FTO; assay: Inhibition of FTO in human A549 cells assessed as upregulation of p53 protein expression incubated for 24 hrs by Western blot analysis; format: cell-based; conditions: dose 3-9 µM
Target sequence in this assay (Q9C0B1 whole entry, looked up): as the sequence (Q9C0B1 whole entry) above

[13] = Selectivity index, ratio of IC50 for cytotoxicity against HLF cells to IC50 for antiproliferative activity against human A549 cells; format: cell-based; conditions: HLF cells versus A549 cells, read-out: Ratio IC50

IC50 (A549 [1]) [µM]	IC50 [7] [µM]	inhibition [9]	inhibition [10]	inhibition [12]	SMILES	IC50 [2] [µM]	IC50 (NB-4) [µM]	IC50 [3] [µM]	IC50 [4] [µM]	Activity (A549 [5])	Activity (A549 [6])	Activity (A549 [8])	Activity (A549 [11])	selectivity ratio [13]
> 20	–	–	–	–	C=CC(=O)N(C)CCN1C(=O)c2cccc3cc([N+](=O)[O-])cc(c23)C1=O	> 20	> 20	> 20	> 20	–	–	–	–	–
> 20	–	–	–	–	C#CCN(C)CCN1C(=O)c2cccc3cc(N)cc(c23)C1=O	> 20	> 20	> 20	> 20	–	–	–	–	–
> 20	–	–	–	–	C#CCN(C)CCN1C(=O)c2cccc3cc(NC(=O)C=C)cc(c23)C1=O	> 20	13.9	> 20	> 20	–	–	–	–	–
> 20	–	–	–	–	C#CCN(C)CCN1C(=O)c2cccc3cc([N+](=O)[O-])cc(c23)C1=O	> 20	> 20	> 20	> 20	–	–	–	–	–
> 20	–	–	–	–	C=CC(=O)N(C)CCN1C(=O)c2cccc3cc(N)cc(c23)C1=O	> 20	> 20	> 20	> 20	–	–	–	–	–

Continued, compound first:

SMILES	IC50 (A549 [1]) [µM]	IC50 [7] [µM]	inhibition [9]	inhibition [10]	inhibition [12]	IC50 [2] [µM]	IC50 (NB-4) [µM]	IC50 [3] [µM]	IC50 [4] [µM]	Activity (A549 [5])	Activity (A549 [6])	Activity (A549 [8])	Activity (A549 [11])	selectivity ratio [13]
NCCN1C(=O)c2cccc3cc(NC(=O)c4ccccn4)cc(c23)C1=O	5.2	–	–	–	–	7.3	8.4	4.1	–	–	–	–	–	–
CN(C)CCN1C(=O)c2cccc3cc(N)cc(c23)C1=O [AMONAFIDE]	4.3	–	–	–	–	9.5	5.7	9.2	8.8	–	–	–	–	–
CNCCN1C(=O)c2cccc3cc(NC(=O)c4ccccn4)cc(c23)C1=O	2.9	–	–	–	–	7.2	12.9	3.5	–	–	–	–	–	–
C#CCCCCNCCN1C(=O)c2cccc3cc(NC(=O)c4ccccn4)cc(c23)C1=O	4.7	–	–	–	–	9.5	9.8	5.3	–	–	–	–	–	–
CNCCN1C(=O)c2cccc3cc([N+](=O)[O-])cc(c23)C1=O	2.8	5.7	Active	Active	Dose-Dependent Effect	6.2	7	2.5	6.9	Active	Active	Active	inactive	2.5
O=C(Nc1cc2c3c(cccc3c1)C(=O)N(CCN1C(=O)C=CC1=O)C2=O)c1ccccn1	> 20	–	–	–	–	> 20	> 20	> 20	–	–	–	–	–	–
CN(C)CCN1C(=O)c2cccc3cc([N+](=O)[O-])cc(c23)C1=O [MITONAFIDE]	1.5	34.8	–	–	–	1.8	3.4	2.8	2.8	–	–	–	–	1.9
C#CCCC1(CCNCCN2C(=O)c3cccc4cc(NC(=O)c5ccccn5)cc(c34)C2=O)N=N1	> 20	–	–	–	–	> 20	10.6	8.5	–	–	–	–	–	–
CN(C)CCN1C(=O)c2cccc3cc(NC(=O)c4ccccn4)cc(c23)C1=O	2.8	4.5	Active	Active	Dose-Dependent Effect	4.5	1.5	3.3	9.9	Active	Active	Active	inactive	3.5
